Reference: US20220175720A1, “COMBINED P[…] ANTHOCYANIN COMPOSITION AND AN ANTIVIRAL AGENT” (priority 2019, published 2022)

Key:
[1] = test system: GFP-encoding wildtype HSV-1 virus; test: HSV-1 infection assay, GFP-expressing infected cells counted directly; assay type: cell-based, herpes simplex virus 1; settings: single anthocyanins, BHK cells
Method: BHK cells were incubated with decreasing concentration of the solubilized test compounds for approx. 1 h. All concentrations were analyzed by six independent replicates on a black 96 well plate (PerkinElmer). Cells were infected with GFP-encoding wildtype HSV-1 virus and incubated for two days. Two days after infection, HSV-1-infected cells and GFP expressing cells were directly counted using the PerkinElmer Ensight system with optical cell culture plates. The instrument was controlled by manual counting.
The cells were subsequently infected with GFP-encoding HSV at a multiplicity of infection of 2.5, and infected GFP-expressing cells were counted one day after infection using the PerkinElmer Ensight system. […] Thus, the sugar is not required as potential co-factor for drug uptake.

HSV-1 = HSV-1 complete replication cycle assay, supernatants used to infect fresh BHK cells; assay type: cell-based, herpes simplex virus 1
Method: To not only analyze the virus entry and early phase of virus replication of infection but also later phases of viral replication, the test assay was adjusted accordingly. BHK cells were incubated with test compounds and subsequently infected with HSV-1. Two days after infection supernatants were collected, centrifuged to remove detached cells and used to infect BHK cells. After two additional days infected cells were quantified using the Ensight system.
Two days after infection supernatants were collected, centrifuged to remove detached cells and used to infect BHK cells. After two additional days infected cells were quantified using the PerkinElmer Ensight system. The mean of infected cells from six independent wells was calculated. Error bars show the standard deviation.
(§1) However, Aciclovir, the standard therapy for HSV-1, targets viral DNA replication before the late phase of virus replication cycle. […] Two days after infection supernatants were collected, centrifuged to remove detached cells and used to infect BHK cells. After two addition days infected cells were quantified.
as §1

Row | Structure (SMILES) | inhibition of HSV-1 (viral infectivity) [1] | reduction of infected cells (HSV-1; 0.5 μg/ml Aciclovir alone) | reduction of viral infectivity (HSV-1; 2 μg/ml Aciclovir alone)
1 | OC[C@H]1O[C@@H](Oc2cc3c(O)cc(O)cc3[o+]c2-c2cc(O)c(O)c(O)c2)[C@H](O)[C@@H](O)[C@H]1O [D3Gal, Delphinidin 3-galactoside] | Neither C3G nor D3Gal or Pet3G inhibited HSV-1 |  | 
2 | OC[C@H]1O[C@@H](Oc2cc3c(O)cc(O)cc3[o+]c2-c2ccc(O)c(O)c2)[C@H](O)[C@@H](O)[C@@H]1O [C3G, Cyanidin 3-glucoside] | Neither C3G nor D3Gal or Pet3G inhibited HSV-1 |  | 
3 | COc1cc(-c2[o+]c3cc(O)cc(O)c3cc2O[C@@H]2O[C@H](CO)[C@@H](O)[C@H](O)[C@H]2O)cc(O)c1O [Pet3G, Petunidin 3-glucoside] | Neither C3G nor D3Gal or Pet3G inhibited HSV-1 |  | 
4 | Nc1nc2c(ncn2COCCO)c(=O)[nH]1 [Aciclovir, 9-(2-hydroxyethoxymethyl)guanine] |  | two | two
